The source of these data is US20240408129A1, “TISSUE FORMATION AGENT” (NATIONAL UNIVERSITY CORPORATION SHIGA UNIVERSITY OF MEDICAL …, priority 2021, published 2024).

The data set relates to tissue between the subcutaneous fascia of the rat back. The conditions noted are these: in vivo, sc. Here is the method: Six rats (Wistar/ST female) were anesthetized by intraperitoneal administration of pentobarbital and inhalation of isoflurane, and each of the solutions (physiological saline and a 2% aqueous solution of low-endotoxin sodium alginate AL2) was individually injected (implanted) in an amount of 1 ml into the tissue between the subcutaneous fascia at a subcutaneous depth of about 1 cm at each of eight sites from the upper back to the lower back, using 1-ml syringe and a 23 G needle. The injection of each solution was performed after randomization. Each needle entry site was sutured with one stitch of 5-0 proline thread.
After 3 weeks, each rat was sacrificed by pentobarbital overdose, and the back implantation sites were cut out and immersion-fixed in a 10% formaldehyde solution. The fixed tissues were subjected to hematoxylin-eosin staining (HE staining) and safranin-O staining (SOFG staining) according to usual methods.
After 12 weeks, HE staining and SOFG staining were performed in the same manner as in Example 1.
Rats in which implantation was performed in the same manner as in Example 4 were subjected to MTC staining, and type I collagen staining in addition to HE staining and SOFG staining. […] MTC staining and type I collagen staining were performed according to usual methods. […]

Take collagen: the “retention / residual implanted material at injection site” value is on record as “present in an amorphous state at the injection sites”.
